Test results taken from patent US6908920B2, “Pyrimidine derivatives” (AstraZeneca AB, priority 2000, dated 2005).

Molecular target: T1, CDK2/Cyclin E (Homo sapiens, UniProt P24941)
T1 construct: made in house; host or cells: Sf21 (Spodoptera frugiperda) insect cells, baculovirus co-infection, for CDK2/cyclin E. E. coli BL21 (DE3) pLysS for the GST-Rb substrate
Experiment: in vitro kinase assay, Scintillation Proximity Assay, incorporation of [γ-33-P]-ATP into GST-Rb
Assay type: biochemical
Details: in-vitro SPA kinase assay, GST-Rb substrate, read-out: CDK2 inhibitory activity IC50
Method: The compounds were tested in an in vitro kinase assay in 96 well format using Scintillation Proximity Assay (SPA—obtained from Amersham) for measuring incorporation of [γ-33-P]-Adenosine Triphosphate into a test substrate (GST-Retinoblastoma protein; GST-Rb). In each well was placed the compound to be tested (diluted in DMSO and water to correct concentrations) and in control wells either roscovitine as an inhibitor control or DMSO as a positive control. […]
The plates were sealed with Topseal-S plate sealers, left for two hours then spun at 2500 rpm, 1124×g., for 5 minutes. The plates were read on a Topcount for 30 seconds per well. […]
E. coli paste was resuspended in 10 ml/g of NETN buffer (50 mM Tris pH 7.5, 120 mM NaCl, 1 mM EDTA, 0.5% v/v NP-40, 1 mM PMSF, 1 ug/mnl leupeptin, 1 ug/ml aprotinin and 1 ug/ml pepstatin) and sonicated for 2×45 seconds per 100 ml homogenate. […] The final product was analysed by Sodium Dodeca Sulfate (SDS) PAGE (Polyacrylamide gel) using 8-16% Tris-Glycine gels (Novex, San Diego, USA).
The open reading frames of CDK2 and Cyclin E were isolated by reverse transcriptase-PCR using HeLa cell and activated T cell mRNA as a template and cloned into the insect expression vector pVL1393 (obtained from Invitrogen 1995 catalogue number: V1392-20). […]

SMILES: CC(C)NCCCNS(=O)(=O)c1ccc(Nc2ncc(C#N)c(N3CCOCC3)n2)cc1 [Example 1, 5-Cyano-4-morpholino-2-{4-[N-(3-isopropylaminopropyl)sulphamoyl]anilino}pyrimidine]
- IC50: 148 nM
